# Experimental data: patent publication US10059973B2, “Carbohydrate esters as inducers for gene expression” (priority 2012, dated 2018)
# How the values were obtained:
# [1] = tested on: T. reesei Rut-C30; assay: Protein (cellulase) induction in T. reesei Rut-C30 shake-flask culture, CMC endo-glucanase activity assay; type: cell-based, Trichoderma reesei; settings: for Cellulase activity at day 3 / Cellulase activity at day 3 (specific induction power, U/mg inducer): 2% glucose as carbon source
# Source text: To prepare for protein induction studies using Trichoderma, a citrate minimal media was first prepared. The media composition, as modified from England et al. (U.S. Pat. […] The final pH was adjusted to 5.50 using NaOH. […] It was obtained from ATCC (56765) and developed as a catabolic de-repressed strain from classic mutagenesis of parent strain NG14 and the wild type […] al., BMC Genomics, 9:327, (2008)). To propagate Trichoderma, the freeze-dried stock from ATCC was first dissolved in sterile deionized water and then transferred onto a PDA (potato dextrose agar) plate (Teknova […]) using a sterile loop. The PDA plate was maintained at room temperature under white fluorescent light and after approximately 7 days, green Trichoderma spores could be seen. In addition, 60% (w/v) glucose stock was prepared and used both as control and as the carbon source for Trichoderma growth. […] Bacteriol., 73:269-278, (1957)).
# [2] = tested on: Penicillium purpurogenum; settings: cited from earlier work
# [3] = tested on: Aspergillus niger (NRRL 330); assay: Protein (amylase) induction in Aspergillus niger culture, amylase activity assay; type: cell-based; settings: inducer 0.05 g/L; 1% sorbitol as carbon source; 24 hours after inducer addition
# Experimental: The procedure of preparing maltose acetate chemically and subsequent sample recovery follows the same procedure described in Example 4. […] Aspergillus niger (NRRL 330), obtained from ARS culture collection, was maintained on a PDA plate and allowed to sporulate for a week at room temperature. For inoculation, a 2 cm by 2 cm area agar plug was first removed and suspended in 5 mL sterile water. […] After additional 24 hours, the cultures were assayed for amylase activity following similar procedures to those detailed by Barton et al. (J.
# [4] = tested on: cellulase gene promoter in Trichoderma reesei; settings: cited from earlier work
# [5] = tested on: Pullularia pullulans; settings: cited from earlier work
compound,measurement,setting,value
"OC[C@H]1O[C@@H](O[C@H]2[C@H](O)[C@@H](O)C(O)O[C@@H]2CO)[C@H](O)[C@@H](O)[C@H]1O (stereo partly drawn) [lactose, D-lactose, reference compound]",Cellulase activity at day 3,[1]; inducer 1.0 g/L,0.64 U/mL
same,"Cellulase activity at day 3 (specific induction power, U/mg inducer)",[1]; inducer 1.0 g/L,0.64 U/mg
mono-O-acetyl cellobiose,effectiveness at inducing cellulase (in words),[2],the most active inducer tested
"OC[C@H]1O[C@H](O[C@H]2[C@H](O)[C@@H](O)[C@H](O)O[C@@H]2CO)[C@H](O)[C@@H](O)[C@@H]1O [Maltose, maltose]",Amylase activity at day 3,[3],2.11 U/mL
same,"Amylase activity at day 3 (specific induction power, U/mg inducer)",[3],44.0 U/mg
6″ acetylated lactose monoester [Purified lactose monoacetate],Cellulase activity at day 3,[1]; inducer 0.09 g/L,2.05 U/mL
same,"Cellulase activity at day 3 (specific induction power, U/mg inducer)",[1]; inducer 0.09 g/L,22.0 U/mg
same,specific induction activity relative to unmodified lactose,"[1]; inducer 0.09 g/L, day 3",approximately 34 times
same,Cellulase activity at day 3,[1]; inducer 0.51 g/L,10.1 U/mL
same,"Cellulase activity at day 3 (specific induction power, U/mg inducer)",[1]; inducer 0.51 g/L,19.9 U/mg
same,specific induction activity relative to unmodified lactose,"[1]; inducer 0.51 g/L, day 3",~31 times
same,Cellulase activity at day 3,[1]; inducer 1.05 g/L,14.0 U/mL
same,"Cellulase activity at day 3 (specific induction power, U/mg inducer)",[1]; inducer 1.05 g/L,13.3 U/mg
same,specific induction activity relative to unmodified lactose,"[1]; inducer 1.05 g/L, day 3",~21 times
"OC[C@H]1O[C@@H](O[C@H]2C(O)O[C@H](CO)[C@@H](O)[C@@H]2O)[C@H](O)[C@@H](O)[C@@H]1O (stereo partly shown) [sophorose, reference compound]",Cellulase activity at day 3,[1]; inducer 0.13 g/L,3.58 U/mL
same,"Cellulase activity at day 3 (specific induction power, U/mg inducer)",[1]; inducer 0.13 g/L,26.9 U/mg
same,Cellulase activity at day 3,[1]; inducer 1.3 g/L,15.0 U/mL
same,"Cellulase activity at day 3 (specific induction power, U/mg inducer)",[1]; inducer 1.3 g/L,11.2 U/mg
same,activity as cellulase inducer relative to cellobiose,[4],2500 times
"CC(=O)OC[C@H]1O[C@@H](O[C@@H]2[C@@H](O)[C@H](O)[C@@H](COC(C)=O)O[C@@H]2O)[C@H](O)[C@@H](O)[C@@H]1O [Purified sophorose diacetate, 6′ and 6″ acetylated alpha-sophorose diester]",Cellulase activity at day 3,[1]; inducer 0.03 g/L,6.33 U/mL
same,"Cellulase activity at day 3 (specific induction power, U/mg inducer)",[1]; inducer 0.03 g/L,211.0 U/mg
same,specific induction power relative to sophorose,"[1]; inducer 0.03 g/L, day 3",~8 times
same,Cellulase activity at day 3,[1]; inducer 0.12 g/L,23.2 U/mL
same,"Cellulase activity at day 3 (specific induction power, U/mg inducer)",[1]; inducer 0.12 g/L,193.3 U/mg
same,specific induction power relative to unmodified sophorose,"[1]; inducer 0.12 g/L, day 3",~7 times
Sucrose monopalmitate,induced sucrase yield relative to sucrose,[5],80 times
"O=C[C@H](O)[C@@H](O)[C@H](O[C@@H]1O[C@H](CO)[C@@H](O)[C@H](O)[C@H]1O)[C@H](O)CO [cellobiose, reference compound]",Cellulase activity at day 3,[1]; inducer 1.0 g/L,0.34 U/mL
same,"Cellulase activity at day 3 (specific induction power, U/mg inducer)",[1]; inducer 1.0 g/L,0.34 U/mg
